The results in this text go back to patent publication US20110245088A1, “AMIDE-BASED SOLUTION-PHASE DERIVED LIBRARY AND METHOD FOR SCREENING THEREOF” (NATIONAL TSING HUA UNIVERSITY, priority 2010, published 2011).

One data set deals with A549 cell line. As to the kind of experiment: Cytotoxicity by MTT assay, A549 cell line. The format is cell-based, Human. As to conditions: for IC50: A549 cell line, purified compounds, incubation of 2 days, read-out: IC 50 of the Compounds Purified from Independent Synthesis, A549. How it is done:
(§1) The cell lines were used in the present invention, including A549 (Human type II epithelial cell line, from American Type Culture Collection, Manassas, Va.) and MCF7 (solid human estrogen receptor positive breast carcinoma). A 10 μl coupling product solution was added into the well of microtiterplate planted with 100 μl of above mentioned cell lines in a concentration of 30000 cells/mL. Furthermore, the coupling product in each well was diluted before transferring to the plate. Thus the appropriate working concentration could be determined since the cellular survival ratio of most compounds acting as negative control is greater than 80%. The method was illustrated in FIG. 3. After an incubation of 2 days, the supernatants were washed, followed by adding MTT reagents. After 4 hours, absorbance at 580 nm was recorded according to the usual protocol.
On the technique in general: Tetrazolium assays rely on reduction of a dye to a coloured formazan, in cell work by metabolically active cells.

For another data set, the system named is MCF7 cell line. As to the kind of experiment: Cytotoxicity by MTT assay, MCF7 cell line. The conditions noted are these: for IC50: MCF7 cell line, purified compounds, incubation of 2 days, read-out: IC 50 of the Compounds Purified from Independent Synthesis, MCF7; for biological activity (cytotoxicity) in crude library assay: crude coupling products, MCF7 (FIGS. 4a-c; cell line not always given). The format is cell-based, human. How it is done: as §1

“Also recorded” adds a separate entry of the source. Like-named read-outs stand apart in the source and are kept apart here.

Turning to `C=C(CC)C(=O)c1ccc(OCC(=O)O)c(Cl)c1Cl` [D15, 2-(2,3-dichloro-4-(2-methylenebutanoyl)phenoxy)acetic acid, reference compound], the IC50 stood at 84 ± 16 µM in the data set with A549 cell line (Homo sapiens, 48 h) and 26 ± 2 µM with MCF7 cell line (Homo sapiens, 48 h).

On to `O=C(NCC1OC(n2ccc(=O)[nH]c2=O)C(O)C1O)c1ccccc1` (centres unmarked) [U1], for which the IC50 with A549 cell line and in the data set on MCF7 cell line was greater than 100 µM each time.

On to `O=C(CCC(=O)c1ccc(-c2ccccc2)cc1)NCC1OC(n2ccc(=O)[nH]c2=O)C(O)C1O` (centres unmarked) [U18], for which the IC50 with A549 cell line and in the data set on MCF7 cell line was greater than 100 µM throughout.

For the compound `N.N.[Cl][Pt][Cl]` [Cisplatin, reference compound], the IC50 in the data set with A549 cell line is 8 ± 3 µM; in the data set on MCF7 cell line, 25 ± 6 µM.

On to `O=C(O)CCC(=O)c1ccc(-c2ccccc2)cc1` [D18, 4-([1,1′-biphenyl]-4-yl)-4-oxobutanoic acid, reference compound], for which the IC50 is greater than 100 µM in the data set with A549 cell line (Homo sapiens, 48 h) and greater than 100 µM in the data set with MCF7 cell line (Homo sapiens, 48 h).

Regarding `C=C(CC)C(=O)c1ccc(OCC(=O)NCCCC)c(Cl)c1Cl` [C15], the IC50 in the data set on A549 cell line came to 18 µM. Besides, in the data set on MCF7 cell line, the IC50 was 8 ± 5 µM and the “biological activity (cytotoxicity) in crude library assay” value (shortened to “biological activity (cytotoxicity)”) is “exhibited biological activity”.

As for `O=C(NCC1OC(n2ccc(=O)[nH]c2=O)CC1O)c1cccc(C(=O)c2ccc(F)cc2)c1` (centres unmarked) [A16], the IC50 in the data set on A549 cell line and in the data set with MCF7 cell line was greater than 100 µM in each case.

On to `O=C(O)c1cccc(C(=O)c2ccc(F)cc2)c1` [D16, 3-(4-fluorobenzoyl)benzoic acid, reference compound], for which the IC50 was greater than 100 µM in the data set on A549 cell line (Homo sapiens, 48 h) and greater than 100 µM in the data set on MCF7 cell line (Homo sapiens, 48 h).

In the case of `C=C(CC)C(=O)c1ccc(OCC(=O)NC[C@H]2O[C@@H](n3ccc(=O)[nH]c3=O)C[C@@H]2O)c(Cl)c1Cl` [A15], the IC50 in the data set with A549 cell line and in the data set on MCF7 cell line was greater than 100 µM throughout. Moreover, in the data set with MCF7 cell line, the “biological activity (cytotoxicity)” value is given as “exhibited biological activity”.

Take `CCCCNC(=O)CCC(=O)c1ccc(-c2ccccc2)cc1` [C18]: the values for the IC50 in the data set with A549 cell line and with MCF7 cell line were 100 µM and 87 µM, respectively. The “biological activity (cytotoxicity)” value in the data set on A549 cell line (crude coupling products, A549) is “unexpected bioactivity”; in the data set with MCF7 cell line, “exhibited biological activity; also recorded: unexpected bioactivity”.

As for `CCCCCCCCCCCC(=O)NC[C@H]1O[C@@H](n2ccc(=O)[nH]c2=O)[C@H](O)[C@@H]1O` [U27], the IC50 with A549 cell line is greater than 100 µM. Further, in the data set with MCF7 cell line, the IC50 was roughly 100 µM and the “biological activity (cytotoxicity)” value is reported as “exhibited biological activity; also recorded: subtle cytotoxicity”.

`CCCCNC(=O)c1cccc(C(=O)c2ccc(F)cc2)c1` [C16]: the IC50 in the data set on A549 cell line and in the data set with MCF7 cell line was greater than 100 µM throughout.
